In brackets after ≈: the same amount, converted by molar mass. Numbered stars: 1 amine (or outer) side, 2 acyl side, 3 side chain; on linkers, the order of the positions; unused ones are H or OH. Square brackets hold non-standard residues; d marks the D form. Peptide text beside a SMILES is read from it. ξ: configuration not given here. X3 = CC1(C)OCC2OC(N3C(=N)NCC3C(O)C(N[*:1])C(=O)[*:2])C3OC(C)(C)OC3C2O1; ξEnduracididine(βξ-OH,4'ξ) = N=C1NCC(C(O)C(N)C(=O)O)N1; ξPhe(βξ-Me) = CC(c1ccccc1)C(N)C(=O)O
How the values were obtained:
Test in all cases: in vitro antibacterial evaluation, MIC by broth dilution
Format in all cases: cell-based
Escherichia coli = conditions: 18 hours at 35° C.
Enterococcus sp. = conditions: broth dilution, 18 hours at 35° C.
Procedure, shortened: (§1)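 Broth dilution per NCCLS standard M7-A2 in Muller-Hinton II […], with an inoculum of 5×10^5 CFU/mL and antibiotic spanning 64-0.06 μg/mL. The MIC is the lowest concentration that inhibits growth of the organism.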

Staphylococcus sp. = conditions: broth dilution, 18 hours at 35° C.
Procedure, shortened: as §1

Streptococcus sp. = conditions: broth dilution, 18 hours at 35° C.
Procedure, shortened: as §1

CC(c1ccccc1)C1NC(=O)CNC(=O)C(CO)NC(=O)C(C(O)C2CNC(=N)N2C2OC(CO)C(O)C(O)C2O)NC(=O)C(C(O)C2CNC(=N)N2)NC(=O)C(Cc2ccc(OC3OC(CO)C(OC4OC(COCc5cccs5)C(O)C(O)C4O)C(O)C3O)cc2)NC1=O (stereo not drawn) [Example 244]
MIC Escherichia coli (ATCC 25922) (Escherichia coli): >64 µg/mL | MIC Escherichia coli (GC 4559) (Escherichia coli): 64 µg/mL (≈ 46 µM) | MIC Escherichia coli (GC 4560) (Escherichia coli): 2 µg/mL (≈ 1.44 µM) | MIC Enterococcus avium (GC 4558) (Enterococcus sp.): 32 µg/mL (≈ 23 µM) | MIC Enterococcus faecalis (ATCC 29212) (Enterococcus sp.): 32 µg/mL (≈ 23 µM) | MIC Enterococcus faecalis (GC 2242) (Enterococcus sp.): 32 µg/mL (≈ 23 µM) | MIC Enterococcus faecalis (GC 2691) (Enterococcus sp.): 32 µg/mL (≈ 23 µM) | MIC Enterococcus faecalis (GC 3059) (Enterococcus sp.): 64 µg/mL (≈ 46 µM) | MIC Enterococcus faecalis (GC 4552) (Enterococcus sp.): 32 µg/mL (≈ 23 µM) | MIC Enterococcus faecalis (GC 4553) (Enterococcus sp.): 32 µg/mL (≈ 23 µM) | MIC Enterococcus faecalis (GC 4554) (Enterococcus sp.): 64 µg/mL (≈ 46 µM) | MIC Enterococcus faecalis (GC 6189) (Enterococcus sp.): 32 µg/mL (≈ 23 µM) | MIC Enterococcus faecium (GC 2243) (Enterococcus sp.): 32 µg/mL (≈ 23 µM) | MIC Enterococcus faecium (GC 4556) (Enterococcus sp.): 32 µg/mL (≈ 23 µM) | MIC Enterococcus faecium (GC 4557) (Enterococcus sp.): 4 µg/mL (≈ 2.87 µM) | MIC Enterococcus faecalis (ATCC 29212) (Enterococcus sp.; strain ATCC 29212): 32 µg/mL (≈ 23 µM) | MIC Enterococcus faecium (GC 2243) (Enterococcus sp.; strain GC 2243): 32 µg/mL (≈ 23 µM) | MIC Enterococcus faecalis (GC 4552) (Enterococcus sp.; strain GC 4552): 32 µg/mL (≈ 23 µM) | MIC Enterococcus faecalis (GC 4553) (Enterococcus sp.; strain GC 4553): 32 µg/mL (≈ 23 µM) | MIC Enterococcus faecalis (GC 4554) (Enterococcus sp.; strain GC 4554): 64 µg/mL (≈ 46 µM) | MIC Enterococcus faecium (GC 4556) (Enterococcus sp.; strain GC 4556): 32 µg/mL (≈ 23 µM) | MIC Enterococcus faecium (GC 4557) (Enterococcus sp.; strain GC 4557): 4 µg/mL (≈ 2.87 µM) | MIC Enterococcus avium (GC 4558) (Enterococcus sp.; strain GC 4558): 32 µg/mL (≈ 23 µM) | MIC Enterococcus faecalis (GC 6189) (Enterococcus sp.; strain GC 6189): 32 µg/mL (≈ 23 µM) | MIC Enterococcus faecalis (GC 2242) (Enterococcus sp.; inoculum 5×10^5 CFU/mL, strain GC 2242): 32 µg/mL (≈ 23 µM) | MIC Enterococcus faecalis (GC 2691) (Enterococcus sp.; inoculum 5×10^5 CFU/mL, strain GC 2691): 32 µg/mL (≈ 23 µM) | MIC Enterococcus faecalis (GC 3059) (Enterococcus sp.; inoculum 5×10^5 CFU/mL, strain GC 3059): 64 µg/mL (≈ 46 µM) | MIC Coagulase Negative Staphylococcus (GC 4547) (Staphylococcus sp.): 4 µg/mL (≈ 2.87 µM) | MIC Coagulase Negative Staphylococcus (GC 4548) (Staphylococcus sp.): 2 µg/mL (≈ 1.44 µM) | MIC Coagulase Negative Staphylococcus (GC 4549) (Staphylococcus sp.): 2 µg/mL (≈ 1.44 µM) | MIC Coagulase Negative Staphylococcus (GC 4551) (Staphylococcus sp.): 4 µg/mL (≈ 2.87 µM) | MIC Coagulase Negative Staphylococcus (GC 6257) (Staphylococcus sp.): 2 µg/mL (≈ 1.44 µM) | MIC Staphylococcus aureus (ATCC 29213) (Staphylococcus sp.): 8 µg/mL (≈ 5.75 µM) | MIC Staphylococcus aureus (GC 1131) (Staphylococcus sp.): 8 µg/mL (≈ 5.75 µM) | MIC Staphylococcus aureus (GC 3051) (Staphylococcus sp.): 8 µg/mL (≈ 5.75 µM) | MIC Staphylococcus aureus (GC 3053) (Staphylococcus sp.): 16 µg/mL (≈ 11.5 µM) | MIC Staphylococcus aureus (GC 4541) (Staphylococcus sp.): 8 µg/mL (≈ 5.75 µM) | MIC Staphylococcus aureus (GC 4542) (Staphylococcus sp.): 1 µg/mL (≈ 0.719 µM) | MIC Staphylococcus aureus (GC 4544) (Staphylococcus sp.): 8 µg/mL (≈ 5.75 µM) | MIC Staphylococcus aureus (GC 4545) (Staphylococcus sp.): 8 µg/mL (≈ 5.75 µM) | MIC Staphylococcus aureus-SMITH (GC 4543) (Staphylococcus sp.): 4 µg/mL (≈ 2.87 µM) | MIC Staphylococcus haemolyticus (GC 4546) (Staphylococcus sp.): 4 µg/mL (≈ 2.87 µM) | MIC Staphylococcus aureus (ATCC 29213) (Staphylococcus sp.; strain ATCC 29213): 8 µg/mL (≈ 5.75 µM) | MIC Staphylococcus aureus (GC 1131) (Staphylococcus sp.; strain GC 1131): 8 µg/mL (≈ 5.75 µM) | MIC Staphylococcus aureus (GC 3051) (Staphylococcus sp.; strain GC 3051): 8 µg/mL (≈ 5.75 µM) | MIC Staphylococcus aureus (GC 3053) (Staphylococcus sp.; strain GC 3053): 16 µg/mL (≈ 11.5 µM) | MIC Staphylococcus aureus (GC 4541) (Staphylococcus sp.; strain GC 4541): 8 µg/mL (≈ 5.75 µM) | MIC Staphylococcus aureus (GC 4542) (Staphylococcus sp.; strain GC 4542): 1 µg/mL (≈ 0.719 µM) | MIC Staphylococcus aureus-SMITH (GC 4543) (Staphylococcus sp.; strain GC 4543): 4 µg/mL (≈ 2.87 µM) | MIC Staphylococcus aureus (GC 4544) (Staphylococcus sp.; strain GC 4544): 8 µg/mL (≈ 5.75 µM) | MIC Staphylococcus aureus (GC 4545) (Staphylococcus sp.; strain GC 4545): 8 µg/mL (≈ 5.75 µM) | MIC Staphylococcus haemolyticus (GC 4546) (Staphylococcus sp.; strain GC 4546): 4 µg/mL (≈ 2.87 µM) | MIC Coagulase Negative Staphylococcus (GC 4547) (Staphylococcus sp.; strain GC 4547): 4 µg/mL (≈ 2.87 µM) | MIC Coagulase Negative Staphylococcus (GC 4548) (Staphylococcus sp.; strain GC 4548): 2 µg/mL (≈ 1.44 µM) | MIC Coagulase Negative Staphylococcus (GC 4549) (Staphylococcus sp.; strain GC 4549): 2 µg/mL (≈ 1.44 µM) | MIC Coagulase Negative Staphylococcus (GC 4551) (Staphylococcus sp.; strain GC 4551): 4 µg/mL (≈ 2.87 µM) | MIC Coagulase Negative Staphylococcus (GC 6257) (Staphylococcus sp.; strain GC 6257): 2 µg/mL (≈ 1.44 µM) | MIC Streptococcus agalactiae (GC 4564) (Streptococcus sp.): 4 µg/mL (≈ 2.87 µM) | MIC Streptococcus pneumoniae (ATCC 6301) (Streptococcus sp.): 1 µg/mL (≈ 0.719 µM) | MIC Streptococcus pneumoniae (GC 1894) (Streptococcus sp.): 0.5 µg/mL (≈ 0.359 µM) | MIC Streptococcus pneumoniae (GC 4565) (Streptococcus sp.): 1 µg/mL (≈ 0.719 µM) | MIC Streptococcus pyogenes (GC 4563) (Streptococcus sp.): 2 µg/mL (≈ 1.44 µM) | MIC Streptococcus pneumoniae (ATCC 6301) (Streptococcus sp.; inoculum 5×10^5 CFU/mL, strain ATCC 6301): 1 µg/mL (≈ 0.719 µM) | MIC Streptococcus pneumoniae (GC 1894) (Streptococcus sp.; inoculum 5×10^5 CFU/mL, strain GC 1894): 0.5 µg/mL (≈ 0.359 µM) | MIC Streptococcus pyogenes (GC 4563) (Streptococcus sp.; inoculum 5×10^5 CFU/mL, strain GC 4563): 2 µg/mL (≈ 1.44 µM) | MIC Streptococcus agalactiae (GC 4564) (Streptococcus sp.; inoculum 5×10^5 CFU/mL, strain GC 4564): 4 µg/mL (≈ 2.87 µM) | MIC Streptococcus pneumoniae (GC 4565) (Streptococcus sp.; inoculum 5×10^5 CFU/mL, strain GC 4565): 1 µg/mL (≈ 0.719 µM)

CC(c1ccccc1)C1NC(=O)CNC(=O)C(CO)NC(=O)C(C(O)C2CNC(=N)N2C2OC3COC(C)(C)OC3C3OC(C)(C)OC32)NC(=O)C(C(O)C2CNC(=N)N2)NC(=O)C(Cc2ccc(O)cc2)NC1=O (stereo not drawn) [Example 247] (cyclo(G[ξPhe(βξ-Me)]Y[ξEnduracididine(βξ-OH,4'ξ)][X3]S); configuration not given here)
MIC Escherichia coli (ATCC 25922) (Escherichia coli): >64 µg/mL | MIC Escherichia coli (GC 4559) (Escherichia coli): >64 µg/mL | MIC Escherichia coli (GC 4560) (Escherichia coli): >64 µg/mL | MIC Enterococcus avium (GC 4558) (Enterococcus sp.): >64 µg/mL | MIC Enterococcus faecalis (ATCC 29212) (Enterococcus sp.): >64 µg/mL | MIC Enterococcus faecalis (GC 2242) (Enterococcus sp.): >64 µg/mL | MIC Enterococcus faecalis (GC 2691) (Enterococcus sp.): >64 µg/mL | MIC Enterococcus faecalis (GC 3059) (Enterococcus sp.): >64 µg/mL | MIC Enterococcus faecalis (GC 4552) (Enterococcus sp.): >64 µg/mL | MIC Enterococcus faecalis (GC 4553) (Enterococcus sp.): >64 µg/mL | MIC Enterococcus faecalis (GC 4554) (Enterococcus sp.): >64 µg/mL | MIC Enterococcus faecalis (GC 6189) (Enterococcus sp.): >64 µg/mL | MIC Enterococcus faecium (GC 2243) (Enterococcus sp.): >64 µg/mL | MIC Enterococcus faecium (GC 4556) (Enterococcus sp.): >64 µg/mL | MIC Enterococcus faecium (GC 4557) (Enterococcus sp.): >64 µg/mL | MIC Coagulase Negative Staphylococcus (GC 4547) (Staphylococcus sp.): >64 µg/mL | MIC Coagulase Negative Staphylococcus (GC 4548) (Staphylococcus sp.): >64 µg/mL | MIC Coagulase Negative Staphylococcus (GC 4549) (Staphylococcus sp.): >64 µg/mL | MIC Coagulase Negative Staphylococcus (GC 4551) (Staphylococcus sp.): >64 µg/mL | MIC Coagulase Negative Staphylococcus (GC 6257) (Staphylococcus sp.): >64 µg/mL | MIC Staphylococcus aureus (ATCC 29213) (Staphylococcus sp.): >64 µg/mL | MIC Staphylococcus aureus (GC 1131) (Staphylococcus sp.): >64 µg/mL | MIC Staphylococcus aureus (GC 3051) (Staphylococcus sp.): >64 µg/mL | MIC Staphylococcus aureus (GC 3053) (Staphylococcus sp.): >64 µg/mL | MIC Staphylococcus aureus (GC 4541) (Staphylococcus sp.): >64 µg/mL | MIC Staphylococcus aureus (GC 4542) (Staphylococcus sp.): >64 µg/mL | MIC Staphylococcus aureus (GC 4544) (Staphylococcus sp.): >64 µg/mL | MIC Staphylococcus aureus (GC 4545) (Staphylococcus sp.): >64 µg/mL | MIC Staphylococcus aureus-SMITH (GC 4543) (Staphylococcus sp.): >64 µg/mL | MIC Staphylococcus haemolyticus (GC 4546) (Staphylococcus sp.): >64 µg/mL | MIC Streptococcus agalactiae (GC 4564) (Streptococcus sp.): >64 µg/mL | MIC Streptococcus pneumoniae (ATCC 6301) (Streptococcus sp.): >64 µg/mL | MIC Streptococcus pneumoniae (GC 1894) (Streptococcus sp.): >64 µg/mL | MIC Streptococcus pneumoniae (GC 4565) (Streptococcus sp.): >64 µg/mL | MIC Streptococcus pyogenes (GC 4563) (Streptococcus sp.): >64 µg/mL

Reference: patent publication US6914045B2, “Glycopeptide antibiotics” (Wyeth Holdings Corporation, priority 2001, dated 2005)
